According to PubChem BioAssay AID504814 (The Scripps Research Institute Molecular Screening Center, 2011):
The source made the active and inactive calls.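 How the source made its calls: active means EC50 of 10 µM or lower; inactive means EC50 above 10 µM.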

Biological target: Caspase-7 (Homo sapiens) (UniProt P55210)
Experiment: activators of human procaspase-7 D3A mutant – biochemical, absorbance, PC-7 D3A triple mutant, powder samples, selectivity assay for procaspase-3 activator project, late-stage follow-up (AID 504814)
Conditions: recombinant procaspase-7 D3A, Ac-DEVD-pNA absorbance

Caspase-7 (Homo sapiens), sequence (P55210 whole entry D23A/D198A/D206A): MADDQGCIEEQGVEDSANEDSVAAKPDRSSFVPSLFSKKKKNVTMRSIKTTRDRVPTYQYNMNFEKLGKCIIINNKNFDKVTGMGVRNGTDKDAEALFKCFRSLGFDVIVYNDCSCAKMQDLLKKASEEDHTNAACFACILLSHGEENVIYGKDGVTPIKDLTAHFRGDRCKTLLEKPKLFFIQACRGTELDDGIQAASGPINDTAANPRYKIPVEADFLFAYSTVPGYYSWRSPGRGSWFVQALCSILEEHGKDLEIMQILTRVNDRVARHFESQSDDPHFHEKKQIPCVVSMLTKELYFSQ

Row | EC50 | SMILES
1 | > 85.3 µM (inactive) | COC(=O)c1ccccc1NCc1cc(=O)oc2cc(O)c(O)cc12
2 | 7.68 µM | C=CCn1c(=NC(=O)c2cc(-c3cccs3)nc3ccccc23)sc2cc(S(N)(=O)=O)ccc21
3 | inactive | CC(=O)Oc1cccc2c1C(=O)c1c(OC(C)=O)cc(C(=O)O)cc1C2=O
4 | inactive | CC(NC(=O)c1cc2cc([N+](=O)[O-])ccc2oc1=O)C1CCCO1 (stereo not given)
5 | > 85.3 µM (inactive) | COc1ccccc1Nc1nc2c(C)cccc2cc1C#N
